Reference: paper PMC6934184, “Selective DNA-PKcs inhibition extends the therapeutic index of localized radiotherapy and chemotherapy” (The Journal of Clinical Investigation, 2019)

Target: T1, SRC (Homo sapiens, UniProt P12931)
T1 construct: purchased Thermo Fisher Scientific (Life Technologies) SelectScreen
Experiment: SelectScreen Z'LYTE
Format: biochemical
Procedure, shortened: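 SelectScreen broad panel; activity (Z'LYTE, Adapta) plus binding formats. ATP: Km app for CSF1R Z'LYTE; 10 for CAMK1 Adapta. Readout = % per kinase.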

T1 sequence (P12931 whole entry): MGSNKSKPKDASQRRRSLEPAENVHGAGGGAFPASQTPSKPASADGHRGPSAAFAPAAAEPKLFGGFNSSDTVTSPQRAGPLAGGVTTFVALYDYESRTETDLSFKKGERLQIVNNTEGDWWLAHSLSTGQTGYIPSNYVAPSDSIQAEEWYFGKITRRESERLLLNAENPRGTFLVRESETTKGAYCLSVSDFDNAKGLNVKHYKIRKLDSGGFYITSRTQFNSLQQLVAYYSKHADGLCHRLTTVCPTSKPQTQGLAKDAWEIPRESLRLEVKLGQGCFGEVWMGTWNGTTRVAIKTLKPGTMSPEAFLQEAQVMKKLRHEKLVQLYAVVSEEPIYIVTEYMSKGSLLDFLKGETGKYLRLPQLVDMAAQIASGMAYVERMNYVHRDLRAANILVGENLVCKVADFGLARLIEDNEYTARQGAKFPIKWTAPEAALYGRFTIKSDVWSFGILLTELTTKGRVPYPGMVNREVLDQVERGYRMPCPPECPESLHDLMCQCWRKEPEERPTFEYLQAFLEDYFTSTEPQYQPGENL

CN(C(=O)CN1CCOCC1)c1ccc2sc3c(-c4cccc5c(=O)cc(N6CC7CCC(C6)O7)oc45)cccc3c2c1 [NU5455]
inhibition at 1 µM: 9.5%
